The nature of data set [1]: Gelation test and TEM of hydrogels/formulas. Format: physicochemical. To be noted: after heating-cooling. From the text:
We first tested the gelation properties of Nap‐G^dF^dF^dY and controlled peptides (Nap‐GFFY, Nap‐^dF^dF, Nap‐G^dF^dA^dY, and Ac‐G^dF^dF^dY). […] The nanostructures of these hydrogels and solutions were subsequently observed by transmission electron microscopy (TEM). […] The diameter of its nanofiber was about 12 nm. […] Insulin mimicking requires a specific conformation of the self‐assembled peptide Nap‐G^dF^dF^dY for in vivo performance, indicating a secondary structure examination is required. We obtained the circular dichroism (CD) spectrum of peptide within the hydrogel at 37 °C.
(§1) All peptides in the study were synthesized by standard solid‐phase peptide synthesis (SPPS), and purified by high performance liquid chromatography (HPLC). Hydrogels/formulas were prepared by heating–cooling method. Negative staining technique was used to observe the nanostructures of materials by using TEM (HITACHI HT7700 Exalens). CD spectrum were measured by a BioLogic (MOS‐450) system. Rheology test was carried out on an AR 2000ex system (TA instrument). The release behaviors of peptides was analyzed by liquid chromatograph (LC2020). Microscale thermophoresis and analysis of binding force was performed by using the Monolith NT.115 system (NanoTemper Technologies, Germany). All samples were tested at the temperature of 37 °C.

The nature of data set [2]: Peptide release from hydrogel/solution. The class given is physicochemical. To be noted: within 12 h, 37 °C, LC (LC2020). Here is the method:
as §1

The nature of data set [3]: In vivo retention of Cy5.5-labeled hydrogel/formula (fluorescence imaging). To be noted: 50 µL subcutaneous inguinal, 8-weeks old female NOD mice, imaged every 6 h at 640 nm excitation. Here is the method: 8‐weeks old female NOD mice were subcutaneously injected with a volume of 50 µL Cy5.5‐labeled peptide hydrogels/formulas in inguinal region. In vivo peptide retention was observed every 6 h at 640 nm excitation wavelength via Cri Maestro In‐vivo imaging System (Xenogen, IVIS Lumina II).

Another data set relates to T1D onset in NOD mice. Nature of the data set: T1D prevention study, incidence of T1D onset. The class given is in vivo, female NOD mice. To be noted: 1 mg mL^-1, 50-70 µL s.c. once a week for 5 weeks from 3 weeks of age.
A further data set concerns pancreatic islets. Nature of the data set: Immunofluorescence of pancreatic islets (morphology, immune cell infiltration), prevention study. The class given is in vivo, NOD mice. As to the method:
Female NOD mice (3 weeks of age) were immunized subcutaneously under the front left leg with Nap‐G^dF^dF^dY, Nap‐GFFY, Nap‐G^dF^dA^dY, Nap‐^dF^dF, Ac‐G^dF^dF^dY (1 mg mL^−1, 50–70 µL), and Alum+Ins2_9‐23 (50 µg) and endotoxin‐free PBS once a week for 5 consecutive weeks (from 3‐weeks old to 7‐weeks old) and maintained in specific pathogen free facilities for up to 36 or 52 weeks (n = 3–10 per group). Random plasma glucose level and body weight of all mice were noted weekly from week 8 till the end of experiment with an OneTouch Ultra blood glucose meter (Lifescan Inc., Milpitas, CA, USA). Mice were classified as diabetic if random plasma glucose level exceeded 11.1 mmol L^−1 for 3 consecutive weeks. IPGTT was performed in all treatment groups at week 14, week 20, and week 36. Serum samples were obtained from all mice at the age of week 14, week 20, and week 36 for cytokine chip microarray, which was performed by the Beijing Genomics Institute. Serum insulin level was determined in 10 µL serum samples of each animal using a mouse insulin ELISA kit according to the manufacture's instruction.
Immunofluorescence staining was performed following procedures that were previously detailed.^[ ^18b,c ^] Pancreas were extracted and paraffin‐embedded before being sectioned (5 µm width) onto microscopic slides. For immunofluorescence staining, antigen retrieval was performed followed by exposure to primary antibodies at 4 ℃ overnight. The pancreas sections were then washed with PBS and staining with secondary antibody for 1–2 h at room temperature and examined under a fluorescence microscope (Olympus BX3‐25ND25, Japan).

Data set [4] relates to bone marrow derived dendritic cells (BMDCs). Set-up: method as in PMID 31244959. To be noted: ref 16b; cited from earlier work.
The target in data set [5] is human insulin receptor protein (Homo sapiens, UniProt P06213). The experiment in a line: Microscale thermophoresis (MST) binding to insulin receptor. To be noted: Monolith NT.115, Recombinant Human Insulin R/CD220 (aa 28-944), 37 °C, read-out: dissociation constant (K D) to human insulin receptor protein. As to the method:
2‐Cl‐trityl chloride resin (1.1 mmol g^−1) was obtained from Nankai University resin Co., Ltd. Fmoc‐amino acids and o‐benzotriazol‐1‐yl‐N,N,N′,N′‐tetramethyluronium hexafluorophosphate (HBTU) were acquired from GL Biochem (Shanghai). Hydogels were prepared and respective endotoxin levels of formula were tested as previously reported.^[ ^23 , ^24 ^] Ins2_9‐23 peptide (SHLVEALYLVCGERGR; endotoxins <1 EU mg^−1) was supplied by Bankpeptide (Hefei, China). The BD Pharmingen FoxP3 staining kit was from (BD Biosciences, Beijing, China). Aluminum hydroxide was purchased from Sigma‐Aldrich (Shanghai, China). Antibodies used for flow cytometry analysis were purchased from eBioscience (CA, USA) and antibodies used for immunofluorescence staining were obtained from Abcam (Shanghai, China). Cytokine chip microarray was performed by Beijing Genomics Institute (Beijing, China). Recombinant Human Insulin R/CD220 (aa 28‐944) Protein was ordered from R&D Systems (Shanghai, China). Mouse Insulin EZRMI‐13 ELISA kit was from Millipore (Merck, UK). […]
All peptides in the study were synthesized by standard solid‐phase peptide synthesis (SPPS), and purified by high performance liquid chromatography (HPLC). […] CD spectrum were measured by a BioLogic (MOS‐450) system. […] The release behaviors of peptides was analyzed by liquid chromatograph (LC2020). […]

The subject of data set [6] is OVA-induced immune responses. To be noted: ref 16a; cited from earlier work. An excerpt:
Poor tolerance induction was also observed from the Nap‐GFFY group (Figure 2A, red dotted line; 60% T1D onset). […] In the present study, when both isoforms of Nap‐GFFY were used, the lack of stability and adjuvant potency of L‐GFFY resulted both in reduced antigenic and adjuvant impact, rendering the Nap‐GFFY formulation less eff ... || Supramolecular peptide hydrogel has, in the past 5 years, been extensively investigated as immune adjuvant to improve efficacy of antigen presentation. By using peptide hydrogel, which functions both as antigen depot and immune adjuvant, it eliminates the likely protein‐induced hypersensitivity in vivo and the need for additional adjuvant^[ ^15 , ^37 ^] […] Because the peptide sequence GFFY is conserved in multiple self‐antigens of autoimmune diabetes, we now have assessed its poten ...

Non-standard residues stand in square brackets, D forms with d. Residues, ends and D or L forms follow the SMILES beside them. *: point of attachment. Acetyl(2-naphthyl) = O=C(Cc1ccc2ccccc2c1)*

Description for T1D onset in NOD mice: Female NOD mice were inoculated with different hydrogel formulations 3 weeks of age. PBS and aluminum hydroxide+Ins2_9‐23 (Alum+Ins2_9‐23) were used as negative and positive controls, respectively. Random blood glucose (RBG) levels were measured weekly and mice with RBG levels above 11.1 mmol L^−1 for more than 3 consecutive weeks were considered “diabetic” in the present study.

Nap‐GFFY: in data set [1], the gelation property result is “could swiftly form transparent hydrogels”. Moreover, the “peptide released from gel” value in data set [2] is “about 40%”. Moreover, the “in vivo retention time (fluorescence signal)” value (“in vivo retention time” below) in data set [3] is recorded as “about 30 h”. Moreover, in the data set on T1D onset in NOD mice, the T1D onset was determined as 60%. Also, in the data set with pancreatic islets (immunofluorescence, prevention study), the “islet immune cell infiltration” value is listed as “substantial immune cell infiltration”. Moreover, the “immune cell infiltration per islet over Nap-G^dF^dF^dY” value in the data set on pancreatic islets (over Nap-G^dF^dF^dY, p < 0.01) is on record as 248 ± 25 % over Nap-GdFdFdY. Further, the “average % of immune cell infiltration per islet” value in the data set on pancreatic islets (per islet, mean ± s.e.m., n = 5-20) worked out at 38.5 ± 3.8 % per islet. Moreover, in data set [4], the “CD40/CD80 expression on BMDCs” value is on record as “significant increase expression of CD40/CD80” and the “TNF-α in cell culture supernatant of BMDCs” value was “elevated”.
Turning to `O=C(Cc1ccc2ccccc2c1)N[C@H](Cc1ccccc1)C(=O)N[C@H](Cc1ccccc1)C(=O)O` [Nap‐^dF^dF], the “in vivo retention time” value in data set [3] is listed as “about 30 h”.
For `O=C(Cc1ccc2ccccc2c1)NCC(=O)N[C@H](Cc1ccccc1)C(=O)N[C@H](Cc1ccccc1)C(=O)N[C@H](Cc1ccc(O)cc1)C(=O)O` [Nap‐G^dF^dF^dY] ({Acetyl(2-naphthyl)}-G[dF][dF][dY]-OH), the Kd in data set [5] amounted to 53.9 µM. Further, in data set [3], the “in vivo retention time” value is given as “about 36 h”. Further, in data set [6], the “in vivo stability vs L-isoform Nap-GFFY” value is reported as “preferentially more stable in vivo”.

Values taken from paper PMC8132061, “An Insulin‐Inspired Supramolecular Hydrogel for Prevention of Type 1 Diabetes” (Advanced Science, 2021).
